The record followed here is ChEMBL document CHEMBL5370531, “Design, synthesis and pharmacological evaluation of 2,3-dihydrobenzofuran IRAK4 inhibitors for the treatment of diffuse large B-cell lymphoma” (Eur J Med Chem, 2023).

The experiment relates to OCI-Ly10. The experiment is described as follows: Synergistic antiproliferative activity against human OCILY10 cells harboring MYD88 L265P assessed as inhibition of cell growth at 1600 nM incubated for 72 hrs in presence of BTK inhibitor, ibrutinib at 12.5 nM by CCK-8 assay (reference value: 64.69 %). In kind it is functional. (Tetrazolium dyes change colour on reduction, which living cells bring about.)

One may read the inhibition as the percentage by which the read-out fell short of the control.

On to `Cn1cc(-c2cc3c(cc2NC(=O)c2coc(-c4ccnc(N)c4)n2)CC(C)(C)O3)cn1`, for which the inhibition at 1.6 µM was 88.7%.
